Measured values: US11542266B1, “Substituted piperidines as BTK inhibitors” (HAISCO PHARMACEUTICALS PTE. LTD., priority 2019, dated 2023)
Counter-ions that a name gives are not always drawn.

Key:
SU-DHL-6 cells = experiment: Inhibition of cell proliferation, SU-DHL-6 cells (Cell Viability Assay, 72 h); format: cell-based; settings: Homo sapiens
Experimental: (§1) SU-DHL-4, Mino, and SU-DHL-6 cells, in the culture medium of RPMI1640+10% FBS, were cultured in an incubator at 37° C. under 5% CO2. Cells were plated in a 96-well plate. Specifically, SU-DHL-4 cells were at 20000/well, Mino and SU-DHL-6 cells were at 5000/well, with 90 μL/well. 10 μL of the compounds at different concentrations were added to each well. There were 3 replicate wells for each concentration, and the last column, added with DMSO, was used as a vehicle control group. The cultures were continued for 72 hours at 37° C. under 5% CO2. After 72 hours, 100 μL of detection reagent (Cell Viability Assay, Promega, G7573) was added to each well, and the cultures were uniformly mixed for 2 minutes, and incubated at room temperature for 10 minutes. The fluorescence signal value was measured with a microplate reader (PHERAstar FSX). The IC50 value of the compound on cell proliferation inhibition was calculated using Origin 9.2 software, and the inhibition rate at the highest concentration of the compound (Max inhi. %) was calculated according to formula (1). Max inhi. %=(1-T72 administration/T72 vehicle)×100 Formula (1).

Mino cells = experiment: Inhibition of cell proliferation, Mino cells (Cell Viability Assay, 72 h); format: cell-based, human; settings: Homo sapiens
Method in brief: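 RPMI1640 + 10% FBS cultures seeded at 20000/well (SU-DHL-4) or 5000/well (Mino, SU-DHL-6), exposed to compound dilutions in triplicate for 72 h at 37 °C, 5% CO2, DMSO vehicle control. Viability read by luminescent reagent; IC50 from dose-response and Max inhi. % = (1 − T72 treated/T72 vehicle)×100 at top concentration.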

SU-DHL-4 cells = experiment: Inhibition of cell proliferation, SU-DHL-4 cells (Cell Viability Assay, 72 h); format: cell-based, human; settings: Homo sapiens
Experimental: as §1

[1] = Pharmacokinetic experiment in rats (i.g. vehicle 0.5% MC); format: in vivo; settings: Sprague-Dawley (SD), rat, po; male SD rats, plasma, i.g. 20 mg/kg, vehicle 0.5% MC; read-out: AUC0-t
Experimental: (§2) Objective: In this experiment, a single dose of each test compound was administered to SD rats intravenously and intragastrically, the concentrations of the test compound in plasma of rats were measured, and the pharmacokinetic characteristics and bioavailability of the test compound in rats were evaluated.
Experimental animals: Male SD rats, 200-250 g, 6-8 weeks old, 6 rats/test compound. The experimental animals were purchased from CHENGDU DOSSY EXPERIMENTAL ANIMALS CO., LTD.
(§3) Experimental method: On the day of the experiment, 6 SD rats were randomly grouped according to their body weight. The animals were fasted with water available for 12 to 14 hours one day before the administration of a test compound, and were fed 4 hours after the administration.
Sampling: Before and after the administration, 0.1 ml of blood was taken from the orbit of the rats under isoflurane anesthesia, and placed in an EDTAK2 centrifuge tube. Centrifugation was carried out at 5000 rpm at 4° C. for 10 min and the plasma was collected.
Time points for plasma collection in G1 group: 0, 5 m, 15 m, 30 m, 1 h, 2 h, 4 h, 6 h, 8 h, and 24 h.
Time points for plasma collection in G2 group: 0, 15 m, 30 m, 1 h, 2 h, 4 h, 6 h, 8 h, and 24 h.
(§4) Before analysis and detection, all samples were stored at −80° C. The samples were analyzed quantitatively by LC-MS/MS.

[2] = Pharmacokinetic experiment in rats (i.g. vehicle DMSO/Solutol/PEG-400/SBE-β-CD); format: in vivo; settings: Sprague-Dawley (SD), rat, plasma, po, male SD rats; for bioavailability: i.g. 20 mg/kg (DMSO/Solutol/PEG-400/SBE-β-CD) vs i.v. 5 mg/kg; for AUC(0-t): i.g. 20 mg/kg, vehicle 5% DMSO + 5% Solutol + 30% PEG-400 + 60% (20%SBE-β-CD)
Experimental: as §2
Experimental animals: Male SD rats, 200-250 g, 6-8 weeks old, 6 rats/compound. The experimental animals were purchased from CHENGDU DOSSY EXPERIMENTAL ANIMALS CO., LTD.
as §3
Sampling: Before and after the administration, 0.1 mL of blood was taken from the orbit of the rats under isoflurane anesthesia, and placed in an EDTAK2 centrifuge tube. Centrifugation was carried out at 5000 rpm at 4° C. for 10 min and the plasma was collected.
Time points for plasma collection in G1 group: 0, 5 min, 15 min, 30 min, 1 h, 2 h, 4 h, 6 h, 8 h, and 24 h.
Time points for plasma collection in G2 group: 0, 15 min, 30 min, 1 h, 2 h, 4 h, 6 h, 8 h, and 24 h.
as §4

Row | Structure (SMILES) | IC50 (SU-DHL-6 cells) [nM] | IC50 (Mino cells) [nM] | IC50 (SU-DHL-4 cells) [nM] | AUC(0-t) [1] [ng·h/mL] | bioavailability [2] [%] | AUC(0-t) [2] [ng·h/mL]
1 | Nc1ncnc2c1c(-c1ccc(Oc3ccccc3)cc1)nn2C1CCN(CC2CN(C3CCN(c4ccc5c(c4)C(=O)N(C4CCC(=O)NC4=O)C5=O)CC3)C2)CC1 (stereo not shown) [Compound 10, 5-(4-(3-((4-(4-amino-3-(4-phenoxyphenyl)-1H-pyrazolo[3,4-d]pyrimidin-1-yl)piperidin-1-yl)methyl)azetidin-1-yl)piperidin-1-yl)-2-(2,6-dioxopiperidin-3-yl)isoindoline-1,3-dione Tetratrifluoroacetate] | 77 | 405 | – | – | – | –
2 | Nc1ncnc2c1c(-c1ccc(Oc3ccccc3)cc1)nn2C1CCN(CC2CCN(C3CCN(c4ccc5c(c4)C(=O)N(C4CCC(=O)NC4=O)C5=O)CC3)CC2)CC1 (stereo not shown) [Compound 9, 5-(4-((4-(4-amino-3-(4-phenoxyphenyl)-1H-pyrazolo[3,4-d]pyrimidin-1-yl)piperidin-1-yl)methyl)-[1,4′-bipiperidin]-1′-yl)-2-(2,6-dioxopiperidin-3-yl)isoindoline-1,3-dione tetratrifluoroacetate] | 155 | 367 | 295 | 8.93 ± 4.3 | – | –
3 | Nc1ncnc2c1c(-c1ccc(Oc3ccccc3)cc1)nn2C1CCN(CC2CCN(C3CN(c4ccc5c(c4)C(=O)N(C4CCC(=O)NC4=O)C5=O)C3)CC2)CC1 (stereo not shown) [Compound 6, 5-(3-(4-((4-(4-amino-3-(4-phenoxyphenyl)-1H-pyrazolo[3,4-d]pyrimidin-1-yl)piperidin-1-yl)methyl)piperidin-1-yl)azetidin-1-yl)-2-(2,6-dioxopiperidin-3-yl)isoindoline-1,3-dione tritrifluoroacetate] | 166 | 421 | – | 328 ± 41 | – | –
4 | Nc1ncnc2c1c(-c1ccc(Oc3ccccc3)cc1)nn2C1CCN(C2CCN(C3CCN(C4CCN(c5ccc6c(c5)C(=O)N(C5CCC(=O)NC5=O)C6=O)CC4)CC3)CC2)CC1 (stereo not shown) [Compound 12, 5-[4-[4-[4-[4-[4-amino-3-(4-phenoxyphenyl)pyrazolo[3,4-d]pyrimidin-1-yl]-1-piperidyl]-1-piperidyl]-1-piperidyl]-1-piperidyl]-2-(2,6-dioxo-3-piperidyl)isoindoline-1,3-dione pentatrifluoroacetate] | 106 | 183 | 56 | – | – | –
5 | Nc1ncnc2c1c(-c1ccc(Oc3ccccc3)cc1)nn2C1CCN(C2CN(C3CN(c4ccc5c(c4)C(=O)N(C4CCC(=O)NC4=O)C5=O)C3)C2)CC1F (stereo not drawn) [Compound 19, trans-5-(3-(4-(4-amino-3-(4-phenoxyphenyl)-1H-pyrazolo[3,4-d]pyrimidin-1-yl)-3-fluoropiperidin-1-yl)-[1,3′-biazetidin]-1′-yl)-2-(2,6-dioxopiperidin-3-yl)isoindoline-1,3-dione trifluoroacetate] | 782 | 48 | – | – | – | –
6 | Nc1ncnc2c1c(-c1ccc(Oc3ccccc3)cc1)nn2C1CCN(C2CCN(C3CN(c4cc5c(cc4F)C(=O)N(C4CCC(=O)NC4=O)C5=O)C3)CC2)CC1 (stereo not shown) [Compound 32, 5-(3-(4-(4-amino-3-(4-phenoxyphenyl)-1H-pyrazolo[3,4-d]pyrimidin-1-yl)-[1,4′-bipiperidin]-1′-yl)azetidin-1-yl)-2-(2,6-dioxopiperidin-3-yl)-6-fluoroisoindoline-1,3-dione] | 393 | 188 | 330 | 322 ± 64 | – | –
7 | Nc1ncnc2c1c(-c1ccc(Oc3ccccc3)cc1)nn2C1CCN(C2CN(C3CCN(C4CCN(C5CCN(c6ccc7c(c6)C(=O)N(C6CCC(=O)NC6=O)C7=O)CC5)CC4)CC3)C2)CC1 (stereo not shown) [Compound 11, 5-[4-[4-[4-[3-[4-[4-amino-3-(4-phenoxyphenyl)pyrazolo[3,4-d]pyrimidin-1-yl]-1-piperidyl]azetidin-1-yl]-1-piperidyl]-1-piperidyl]-1-piperidyl]-2-(2,6-dioxo-3-piperidyl)isoindoline-1,3-dione Hexatrifluoroacetate] | 109 | 114 | 189 | – | – | –
8 | Nc1ncnc2c1c(-c1ccc(Oc3ccccc3)cc1)nn2[C@@H]1CCN(C2CN(C3CN(c4ccc5c(c4)C(=O)N(C4CCC(=O)NC4=O)C5=O)C3)C2)C[C@H]1F (stereo partly drawn) [Compound 39, 5-(3-((3R,4R)-4-(4-amino-3-(4-phenoxyphenyl)-1H-pyrazolo[3,4-d]pyrimidin-1-yl)-3-fluoropiperidin-1-yl)-[1,3′-biazetidin]-1′-yl)-2-(2,6-dioxopiperidin-3-yl)isoindoline-1,3-dione] | – | 41 | – | – | 9.1 ± 1.5 | 2830 ± 474
9 | Nc1ncnc2c1c(-c1ccc(Oc3ccccc3)cc1)nn2C1CCN(C2CCN(C3CCN(C4CCN(C5CCN(c6ccc7c(c6)C(=O)N(C6CCC(=O)NC6=O)C7=O)CC5)CC4)CC3)CC2)CC1 (stereo not shown) [Compound 14, 5-[4-[4-[4-[4-[4-[4-amino-3-(4-phenoxyphenyl)pyrazolo[3,4-d]pyrimidin-1-yl]-1-piperidyl]-1-piperidyl]-1-piperidyl]-1-piperidyl]-1-piperidyl]-2-(2,6-dioxo-3-piperidyl)isoindoline-1,3-dione Hexatrifluoroacetate] | 86 | – | 60 | – | – | –
10 | Nc1ncnc2c1c(-c1ccc(Oc3ccccc3)cc1)nn2[C@@H]1CCN(C2CN(C3CN(c4ccc5c(c4)C(=O)N(C4CCC(=O)NC4=O)C5=O)C3)C2)C[C@@H]1F (stereo partly drawn) [Compound 38, 5-[3-[3-[(3S,4R)-4-[4-amino-3-(4-phenoxyphenyl)pyrazolo[3,4-d]pyrimidin-1-yl]-3-fluoro-1-piperidyl]azetidin-1-yl]azetidin-1-yl]-2-(2,6-dioxo-3-piperidyl)isoindoline-1,3-dione] | 888 | 81 | 469 | – | 13.3 ± 5.2 | 7260 ± 2860
11 | Nc1ncnc2c1c(-c1ccc(Oc3ccccc3)cc1)nn2[C@H]1CCN(C2CCN(C3CN(c4ccc5c(c4)C(=O)N(C4CCC(=O)NC4=O)C5=O)C3)CC2)C[C@@H]1F (stereo partly drawn) [Compound 44, 5-(3-((3S,4S)-4-(4-amino-3-(4-phenoxyphenyl)-1H-pyrazolo[3,4-d]pyrimidin-1-yl)-3-fluoro-[1,4′-bipiperidin]-1′-yl)azetidin-1-yl)-2-(2,6-dioxopiperidin-3-yl)isoindoline-1,3-dione] | – | 15 | – | – | 5.73 ± 0.64 | 877 ± 98
12 | Nc1ncnc2c1c(-c1ccc(Oc3ccccc3)cc1)nn2C1CCN(C2CCN(C3CCN(c4ccc5c(c4)C(=O)N(C4CCC(=O)NC4=O)C5=O)CC3)CC2)CC1 (stereo not shown) [Compound 2, 5-[4-[4-[4-[4-amino-3-(4-phenoxyphenyl)pyrazolo[3,4-d]pyrimidin-1-yl]-1-piperidyl]-1-piperidyl]-1-piperidyl]-2-(2,6-dioxo-3-piperidyl)isoindoline-1,3-dione] | 26 | 633 | 41 | 18.6 ± 2.8 | – | –
13 | Nc1ncnc2c1c(-c1ccc(Oc3ccccc3)cc1)nn2[C@H]1CCN(C2CN(C3CN(c4ccc5c(c4)C(=O)N(C4CCC(=O)NC4=O)C5=O)C3)C2)C[C@H]1F (stereo partly drawn) [Compound 41, 5-(3-((3R,4S)-4-(4-amino-3-(4-phenoxyphenyl)-1H-pyrazolo[3,4-d]pyrimidin-1-yl)-3-fluoropiperidin-1-yl)-[1,3′-biazetidin]-1′-yl)-2-(2,6-dioxopiperidin-3-yl)isoindoline-1,3-dione] | 670 | 10.3 | 329 | – | 10.8 ± 1.5 | 7910 ± 1100
